Experimental data published in patent US20240381871A1, “5-HALOALKOXY-PYRIMIDINE COMPOUNDS AS HERBICIDES” (SYNGENTA CROP PROTECTION AG, priority 2020, published 2024).

How the values were obtained:
Type in all cases: in vivo
[1] = test system: Amaranthus retoflexus (AMARE); test: Post-emergence herbicidal glasshouse test; settings: rate 250, evaluated after 13 days, the values are: phytotoxicity score (1-5 scale)
Protocol: (§1) Seeds of a variety of test species are sown in standard soil in pots, Amaranthus retoflexus (AMARE), Abutilon theophrasti (ABUTH), Setaria faberi (SETFA), Echinochloa crus-galli (ECHCG) and Ipomoea hederacea (IPOHE). After cultivation for one day (pre-emergence) or after 8 days cultivation (post-emergence) under controlled conditions in a glasshouse (at 24/16° C., day/night; 14 hours light; 65% humidity), the plants are sprayed with an aqueous spray solution derived from the formulation of the technical active ingredient in acetone/water (50:50) solution containing 0.5% Tween 20 (polyoxyethelyene sorbitan monolaurate, CAS RN 9005-64-5). Compounds are applied at 1000 g/ha unless otherwise stated. The test plants are then grown in a glasshouse under controlled conditions in a glasshouse (at 24/16° C., day/night; 14 hours light; 65% humidity) and watered twice daily. After 13 days for pre and post-emergence, the test is evaluated for the percentage damage caused to the plant.

[2] = test system: Abutilon theophrasti (ABUTH); test: Post-emergence herbicidal glasshouse test; settings: rate 250, evaluated after 13 days, the values are:
Protocol: as §1

[3] = test system: Ipomoea hederacea (IPOHE); test: Post-emergence herbicidal glasshouse test; settings: rate 250, evaluated after 13 days, the values are: phytotoxicity score (1-5 scale)
Protocol: as §1

[4] = test system: Setaria faberi (SETFA); test: Post-emergence herbicidal glasshouse test; settings: rate 250, evaluated after 13 days, the values are:
Protocol: as §1

[5] = test system: Ipomea hederacea (IPOHE); test: Comparative post-emergence test, weed control; settings: Ipomoea hederacea, 336 h, after 14 days, read-out: IPOHE damage (100=total damage to plant; 0=no damage)
Protocol: (§2) Seeds of test species were sown in standard soil in pots. After cultivation for 10 days (post-emergence) under controlled conditions in a glasshouse (at 24/16° C., day/night; 14 hours light; 65% humidity), the plants were sprayed with an aqueous spray solution derived from the formulation of the technical active ingredient in 0.6 ml acetone and 45 ml formulation solution containing 10.6% Emulsogen EL (Registry number 61791-12-6), 42.2% N-methyl pyrrolidone, 42.2% dipropylene glycol monomethyl ether (CAS RN 34590-94-8) and 0.2% X-77 (CAS RN 11097-66-8). The test plants were then grown in a glasshouse under controlled conditions in a glasshouse (at 24/16° C., day/night; 14 hours light; 65% humidity) and watered twice daily. After 14 days, the test was evaluated (100=total damage to plant; 0=no damage to plant). • Weeds: Ipomea hederacea (IPOHE) • Crops: Zea mays (ZEAMX)

[6] = test system: Zea mays (ZEAMX); test: Comparative post-emergence test, crop damage; settings: 336 h, after 14 days, read-out: ZEAMX damage (100=total damage to plant; 0=no damage)
Protocol: as §2

[7] = test system: Amaranthus retoflexus (AMARE); test: Pre-emergence herbicidal glasshouse test; settings: rate 250, evaluated after 13 days, the values are:
Protocol: as §1

[8] = test system: Abutilon theophrasti (ABUTH); test: Pre-emergence herbicidal glasshouse test; settings: rate 250, evaluated after 13 days, the values are:
Protocol: as §1

[9] = test system: Ipomoea hederacea (IPOHE); test: Pre-emergence herbicidal glasshouse test; settings: rate 250, evaluated after 13 days, the values are:
Protocol: as §1

[10] = test system: Setaria faberi (SETFA); test: Pre-emergence herbicidal glasshouse test; settings: rate 250, evaluated after 13 days, the values are: phytotoxicity score (1-5)
Protocol: as §1

[11] = test system: Echinochloa crus-galli (ECHCG); test: Post-emergence herbicidal glasshouse test; settings: rate 250, evaluated after 13 days, the values are: phytotoxicity score (1-5 scale)
Protocol: as §1

[12] = test system: Echinochloa crus-galli (ECHCG); test: Pre-emergence herbicidal glasshouse test; settings: rate 250, evaluated after 13 days, the values are: phytotoxicity score (1-5)
Protocol: as §1

Row | Compound | Post-emergence activity AMARE (% phytotoxicity) [1] | Post-emergence activity ABUTH (% phytotoxicity) [2] | Post-emergence activity IPOHE (% phytotoxicity) [3] | Post-emergence activity SETFA (% phytotoxicity) [4] | pest or weed control at 2 g/ha [5] | pest or weed control at 8 g/ha [5] | pest or weed control at 60 g/ha [5] | pest or weed control at 125 g/ha [5] | pest or weed control at 250 g/ha [5] | plant injury at 8 g/ha [6] | plant injury at 60 g/ha [6] | plant injury at 125 g/ha [6] | plant injury at 250 g/ha [6] | Pre-emergence activity AMARE (% phytotoxicity) [7] | Pre-emergence activity ABUTH (% phytotoxicity) [8] | Pre-emergence activity IPOHE (% phytotoxicity) [9] | Pre-emergence activity SETFA (% phytotoxicity) [10] | Post-emergence activity ECHCG (% phytotoxicity) [11] | Pre-emergence activity ECHCG (% phytotoxicity) [12] | plant injury at 2 g/ha [6] | other results
1 | Fc1cccc(Oc2ncc(OC(F)F)cn2)c1-c1cc(C(F)F)no1 [Compound 1.001, 5-[2-[5-(difluoromethoxy)pyrimidin-2-yl]oxy-6-fluoro-phenyl]-3-(difluoromethyl)isoxazole] | 4 | 3 | 3 | 4 | 30% | 20% | 70% | 80% | 90% | 0% | 20% | 10% | 20% | 5 | 5 | 5 | 5 | – | – | – | pest or weed control at 500 g/ha [5]: 100%; plant injury at 500 g/ha [6]: 40%
2 | FC(F)Oc1cnc(Oc2cccc(Cl)c2CCCC(F)(F)F)nc1 [Compound 1.023, 2-[3-chloro-2-(4,4,4-trifluorobutyl)phenoxy]-5-(difluoromethoxy)pyrimidine] | 1 | 1 | 1 | 1 | – | – | – | – | – | – | – | – | – | 1 | 1 | 1 | 1 | 1 | 1 | – | –
3 | COc1cnc(Oc2cccc(F)c2-c2cc(C(F)F)no2)nc1 | – | – | – | – | 10% | 10% | 20% | 50% | 60% | 0% | 10% | 10% | 10% | – | – | – | – | – | – | 0% | pest or weed control at 500 g/ha [5]: 70%; plant injury at 500 g/ha [6]: 40%
4 | COc1cnc(Oc2cccc(Cl)c2-c2cc(C(F)F)no2)nc1 | – | – | – | – | 20% | 30% | 20% | 50% | 60% | 0% | 10% | 20% | 30% | – | – | – | – | – | – | 0% | –
5 | FC(F)Oc1cnc(Oc2cccc(Br)c2CCCC(F)(F)F)nc1 [Compound 1.024] | 2 | 1 | 1 | 1 | – | – | – | – | – | – | – | – | – | 2 | 1 | 1 | 1 | 1 | 1 | – | –
6 | Fc1cccc(Oc2ncc(OC(F)(F)F)cn2)c1-c1cc(C(F)F)no1 [Compound 1.002, 3-(difluoromethyl)-5-[2-fluoro-6-[5-(trifluoromethoxy)pyrimidin-2-yl]oxy-phenyl]isoxazole] | 4 | 4 | 3 | 4 | – | – | – | – | – | – | – | – | – | 5 | 5 | 4 | 5 | 4 | 4 | – | –
7 | N#Cc1cccc(Oc2ncc(OC(F)F)cn2)c1CCCC(F)(F)F [Compound 1.025] | 2 | 1 | 1 | 1 | – | – | – | – | – | – | – | – | – | 1 | 1 | 1 | 1 | 1 | 1 | – | –
8 | O=C(CCC(F)(F)F)c1c(Br)cccc1Oc1ncc(OC(F)F)cn1 [Compound 1.028] | 5 | 2 | 2 | 1 | – | – | – | – | – | – | – | – | – | 5 | 2 | 1 | 5 | 1 | 1 | – | –
9 | COc1cnc(Oc2ccccc2-c2cc(C(F)F)no2)nc1 [Compound 213] | – | – | – | – | 0% | 10% | 20% | 30% | 40% | 0% | 0% | 0% | 0% | – | – | – | – | – | – | 0% | pest or weed control at 500 g/ha [5]: 50%; plant injury at 500 g/ha [6]: 20%
10 | COc1cnc(Oc2cccc(C#N)c2-c2cc(C(F)F)no2)nc1 | – | – | – | – | 10% | 30% | 40% | 50% | 50% | 0% | 0% | 10% | 10% | – | – | – | – | – | – | 0% | pest or weed control at 500 g/ha [5]: 60%; plant injury at 500 g/ha [6]: 40%
11 | COc1cnc(Oc2cccc(Br)c2-c2cc(C(F)F)no2)nc1 | – | – | – | – | 10% | 30% | 50% | 50% | 60% | 0% | 0% | 10% | 30% | – | – | – | – | – | – | 0% | –
12 | O=C(CCC(F)(F)F)c1c(Cl)cccc1Oc1ncc(OC(F)F)cn1 [Compound 1.027, 1-[2-chloro-6-[5-(difluoromethoxy)pyrimidin-2-yl]oxy-phenyl]-4,4,4-trifluoro-butan-1-one] | 4 | 3 | 3 | 1 | – | – | – | – | – | – | – | – | – | 4 | 3 | 1 | 4 | 1 | 2 | – | –
